Results from US20040268437A1, “Method for biosynthesizing the serotonin derivatives in plants” (CHONNAM NATIONAL UNIVERSITY, priority 2003, published 2004).
Entries after “also recorded” stand apart in the source; their conditions may differ.

How the values were obtained:
[1] = test system: Hot pepper (Variety: Pungcheon); experiment: Serotonin sprayed on hot pepper sarcocarps; serotonin derivative content by HPLC; assay type: in vivo
Procedure: Hot pepper (Variety: Pungcheon) was treated with serotonin to investigate biosynthesis of serotonin derivatives.
Serotonin solution (prepared by dissolving serotonin in water to make 1 mM concentration) was sprayed on sarcocarps of hot pepper at the rate of 10,000 L/ha. 72 hours after spraying, sarcocarps were taken to investigate the content of serotonin derivatives, for which the same method in the Example 1 was used. Sarcocarps of hot pepper not treated with serotonin were used as a control.

hot pepper THT enzyme = experiment: In vitro enzyme reaction of purified hot pepper THT with serotonin, product by HPLC; assay type: biochemical, hot pepper (Capsicum annuum)
Procedure: In order to confirm whether hot pepper THT enzyme could use serotonin as an amine substrate, hot pepper THT protein, in which 6 histidines were attached on carboxy-terminal, was purified by affinity chromatography (Back et al., Plant Cell Physiol. 42, 475-481, 2001) and used for the experiment. Particularly, 1 μg of the purified hot pepper THT enzyme, 1 mM of feruloyl-CoA (Sigma-Aldrich, Korea) and 10 mM of serotonin (Sigma-Aldrich, Korea) were mixed together, followed by an enzyme reaction at 30° C. for 10 minutes. Upon completing the reaction, the reaction product was analyzed by HPLC.

[2] = sarcocarps of hot pepper, 1 mM serotonin sprayed, 10,000 L/ha, 72 hours

`NCCc1c[nH]c2ccc(O)cc12` [Serotonin, serotonin] was tested, and the Serotonin derivatives detected ([1]; sarcocarps of hot pepper treated with serotonin, in words) was “a large amount; also recorded: detected a lot”, the “Content of serotonin derivatives: Coumaroyl Serotonin” value [1, 2] was 1538 ng/1 g sarcocarps and the “Content of serotonin derivatives: Feruloyl serotonin” value [1, 2] was 1028 ng/1 g sarcocarps. The “Content of serotonin derivatives: Total content” value [1, 2] was 2566 ng/1 g sarcocarps, the “Serotonin used as amine substrate, product feruloylserotonin” value (hot pepper THT enzyme; 1 μg THT, 1 mM feruloyl-CoA, 10 mM serotonin, 30° C., 10 minutes) was “uses serotonin as an amine substrate; also recorded: biosynthesis of feruloylserotonin was confirmed” and the “Serotonin used as amine substrate, product coumaroylserotonin” value (hot pepper THT enzyme; coumaroyl-CoA and serotonin as substrates (not shown)) was “synthesized coumaroylserotonin; also recorded: biosynthesis of coumaroylserotonin by hot pepper THT enzyme was also confirmed”.
